Results on two molecules are retold here after patent publication EP3138569B1, “COMPOSITION FOR EXTERNAL APPLICATION” (priority 2014, dated 2015).

Where two headings read alike, the source gives them in different places.

Assay [1] has as its system Normal human epidermal fibroblasts. In words: Evaluation of fibroblast-activating effect (MTT, blue formazan). The class given is cell-based. The note with it: for activity at 0.313 % / activity at 0.625 % / activity at 1.25 % / activity at 2.5 % / activity at 5 %: Homo sapiens, Fibroblast, 48 h, blue formazan relative to non-treated cells = 100, n=4, read-out: Index (%); for activity at 0.313 %: 0.313 w/v%; for activity at 0.625 %: 0.625 w/v%; for activity at 1.25 %: 1.250 w/v%; for activity at 2.5 %: 2.500 w/v%; for activity at 5 %: 5.000 w/v%; for fibroblast-activating effect: Student's t-test. Here is the method:
Normal human epidermal fibroblasts suspended in a DMEM medium containing a 5% calf serum (FBS) were inoculated in a 96-well plate at a density of 2.0 x 10^4 cells per well. After 24 hours of the inoculation, the medium was exchanged with a 1% calf serum (FBS) -containing DMEM medium (each test solution) which contained trehalulose, isomaltulose, or reduced isomaltulose at the concentrations shown in Table 1 (i.e., each six types of concentrations including 0.000 w/v %). […] Also, 5% FBS-containing DMEM media were used as positive controls (P.C.). After culturing for 48 hours, the medium was exchanged with a 1% FBS-containing DMEM medium which contained 0.4 mg/mL of 3-(4,5-dimethylthiazol-2-yl)-2,5-diphenyltetrazolium bromide (MTT) and cultured for 2 hours. The medium was removed, and when 2-propanol was added, blue formazan generated was extracted. Absorbance of the extract at 550 nm was measured to obtain the amount of blue formazan.

Assay [2] has the same test system. Put plainly: Evaluation of reducing effect of oxidative stress induced cell damage (UVB 25 mJ/cm^2, Neutral Red). The class given is cell-based. Here is the method:
(§1) When cells are irradiated with UVB, reactive oxygen species (such as a superoxide anion radical, hydrogen peroxide, and a hydroxyl radical) generate. The viability of cells obtained when the cells were irradiated with UVB was used as index to evaluate the reducing effect of the oxidative stress induced cell damage.
(§2) Normal human epidermal fibroblasts suspended in a KG2 medium were inoculated in a 96-well plate at a density of 2.0 x 10^4 cells per well. After 24 hours of the inoculation, the medium was exchanged with a KG2 medium (each test solution) which contained trehalulose or reduced isomaltulose at the concentrations shown in Table 2 (i.e., each six types of concentrations including 0.000 w/v %) and cultured for 24 hours. […] Also, groups that were not irradiated with UVB were provided as control groups. After culturing, the medium was exchanged with a KB2 medium containing 33 µg/mL of Neutral Red (NR) and was cultured for 2 hours. After culturing, the cells were washed with PBS, and NR captured within the cells was extracted with a 0.1M HCl solution containing 30% (v/v) ethanol. Absorbance of the extract at 550 nm was measured.
Except that the each test solution was changed to a KG2 medium which contained isomaltulose at the concentrations shown in Table 4 (i.e., six types of concentrations including 0.000 w/v %) and that the irradiation intensity of UVB was changed to 25 mJ/cm^2, the reducing effect of the oxidative stress induced cell damage was evaluated according to the same procedure as in Example 2.

For a further assay, the target named is T1, tyrosinase (Homo sapiens, UniProt P14679).
T1 sequence (P14679 19-529): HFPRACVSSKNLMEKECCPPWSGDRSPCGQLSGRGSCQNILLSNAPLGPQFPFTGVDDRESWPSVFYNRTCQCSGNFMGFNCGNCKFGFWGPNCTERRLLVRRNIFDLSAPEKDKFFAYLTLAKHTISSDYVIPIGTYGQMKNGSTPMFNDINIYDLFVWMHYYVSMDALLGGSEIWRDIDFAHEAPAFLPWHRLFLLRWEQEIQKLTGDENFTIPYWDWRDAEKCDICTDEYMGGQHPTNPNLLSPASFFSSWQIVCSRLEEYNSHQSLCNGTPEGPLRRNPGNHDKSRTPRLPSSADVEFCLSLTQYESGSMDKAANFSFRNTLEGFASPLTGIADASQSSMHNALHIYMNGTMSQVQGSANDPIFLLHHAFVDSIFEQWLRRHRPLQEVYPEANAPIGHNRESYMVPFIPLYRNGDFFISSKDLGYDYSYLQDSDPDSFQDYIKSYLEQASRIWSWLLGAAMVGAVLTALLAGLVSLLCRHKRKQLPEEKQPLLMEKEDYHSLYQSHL
The conditions noted are these: for Tyrosinase enzyme activity (µg melanin/µg protein/h): 0.5 mM L-DOPA, 37 °C, 2 hours, n=5; for tyrosinase-inhibiting effect: Student's t-test.

The subject of assay [3] is Normal human epidermal fibroblasts. Put plainly: Evaluation of reducing effect of oxidative stress induced cell damage (UVB 20 mJ/cm^2, Neutral Red). The class given is cell-based. As for the experimental part: as §1, §2

Take `O=C(CO)[C@@H](O)[C@H](O)[C@H](O)CO[C@H]1O[C@H](CO)[C@@H](O)[C@H](O)[C@H]1O` [Isomaltulose, 6-O-α-D-glucopyranosyl-D-fructose]: in assay [1], the activity at 0.313 % is 101 ± 2%, the activity at 0.625 % worked out at 107 ± 4.4%, the activity at 1.25 % was 111 ± 2.3% and the activity at 2.5 % was found to be 113 ± 2.1%. Besides, in assay [1], the activity at 5 % is 112% and the fibroblast-activating effect entry is listed as “significant fibroblast-activating effect”. The viability at 0.013 % in assay [2] (Homo sapiens, Fibroblast, light or radiation study, 24 h, 0.013 w/v%, absorbance relative to UVB non-irradiated group = 100, n=4, read-out: Index (%)) was found to be 80 ± 1.8%. The viability at 0.025 % in assay [2] (Homo sapiens, Fibroblast, light or radiation study, 24 h, 0.025 w/v%, absorbance relative to UVB non-irradiated group = 100, n=4, read-out: Index (%)) came to 83.7 ± 3.5%. Besides, the viability at 0.05 % in assay [2] (Homo sapiens, Fibroblast, light or radiation study, 24 h, 0.050 w/v%, absorbance relative to UVB non-irradiated group = 100, n=4, read-out: Index (%)) came to 84.3 ± 1.1%. Further, in assay [2] (Homo sapiens, Fibroblast, light or radiation study, 24 h, 0.100 w/v%, absorbance relative to UVB non-irradiated group = 100, n=4, read-out: Index (%)), the viability at 0.1 % was 86.2 ± 2.5%. Further, in assay [2] (Homo sapiens, Fibroblast, light or radiation study, 24 h, 0.200 w/v%, absorbance relative to UVB non-irradiated group = 100, n=4, read-out: Index (%)), the viability at 0.2 % came out at 86.8 ± 2.9%. Further, the “reducing effect of cell damage” value in assay [2] (Student's t-test) is “significant reducing effect of cell damage”. Moreover, the “Tyrosinase enzyme activity (µg melanin/µg protein/h)” value (“Tyrosinase enzyme activity” for short) at tyrosinase (0.094 w/v%) was determined as 0.205 ± 0.004 µg melanin/µg protein/h. Moreover, the “Tyrosinase enzyme activity” value on tyrosinase (0.188 w/v%) is reported as 0.208 ± 0.003 µg melanin/µg protein/h. The “Tyrosinase enzyme activity” value at tyrosinase (0.375 w/v%) turned out to be 0.200 ± 0.006 µg melanin/µg protein/h. In addition, the “Tyrosinase enzyme activity” value on tyrosinase (0.750 w/v%) is reported as 0.196 ± 0.004 µg melanin/µg protein/h. Besides, the “Tyrosinase enzyme activity” value on tyrosinase (1.500 w/v%) is recorded as 0.190 ± 0.003 µg melanin/µg protein/h. Moreover, on tyrosinase (3.000 w/v%), the “Tyrosinase enzyme activity” value is 0.184 ± 0.004 µg melanin/µg protein/h. Also, at tyrosinase, the tyrosinase-inhibiting effect result was “significant tyrosinase-inhibiting effect”.

As for `O=C(CO[C@H]1O[C@H](CO)[C@@H](O)[C@H](O)[C@H]1O)[C@@H](O)[C@H](O)[C@H](O)CO` [Trehalulose, 1-O-α-D-glucopyranosyl-D-fructose], in assay [1], the activity at 0.313 % came out at 101 ± 2.4%, the activity at 0.625 % came out at 104 ± 2.5%, the activity at 1.25 % is 106.9 ± 0.8% and the activity at 2.5 % is 112 ± 1.4%. Further, in assay [1], the activity at 5 % was determined as 114 ± 5.8% and the fibroblast-activating effect entry is reported as “significant fibroblast-activating effect”. Also, the viability at 0.125 % in assay [3] (Homo sapiens, Fibroblast, light or radiation study, 24 h, 0.125 w/v%, absorbance relative to UVB non-irradiated group = 100, n=4, read-out: Index (%)) is 80.7 ± 2.7%. For the same molecule, the viability at 0.25 % in assay [3] (Homo sapiens, Fibroblast, light or radiation study, 24 h, 0.250 w/v%, absorbance relative to UVB non-irradiated group = 100, n=4, read-out: Index (%)) is 82 ± 4.1%. The viability at 0.5 % in assay [3] (Homo sapiens, Fibroblast, light or radiation study, 24 h, 0.500 w/v%, absorbance relative to UVB non-irradiated group = 100, n=4, read-out: Index (%)) is 86.5 ± 1.3%. Further, the viability at 1 % in assay [3] (Homo sapiens, Fibroblast, light or radiation study, 24 h, 1.000 w/v%, absorbance relative to UVB non-irradiated group = 100, n=4, read-out: Index (%)) is 93 ± 0.4%. Moreover, in assay [3] (Homo sapiens, Fibroblast, light or radiation study, 24 h, 2.000 w/v%, absorbance relative to UVB non-irradiated group = 100, n=4, read-out: Index (%)), the viability at 2 % came out at 94.8 ± 1%. In addition, the “reducing effect of cell damage” value in assay [3] (Student's t-test) is “significant reducing effect of cell damage”. Further, the “Tyrosinase enzyme activity” value at tyrosinase (0.094 w/v%) is given as 0.251 ± 0.034 µg melanin/µg protein/h. Also, the “Tyrosinase enzyme activity” value on tyrosinase (0.188 w/v%) was 0.251 ± 0.051 µg melanin/µg protein/h. The “Tyrosinase enzyme activity” value at tyrosinase (0.375 w/v%) is recorded as 0.244 ± 0.044 µg melanin/µg protein/h. Also, the “Tyrosinase enzyme activity” value at tyrosinase (0.750 w/v%) is reported as 0.232 ± 0.028 µg melanin/µg protein/h. Moreover, the “Tyrosinase enzyme activity” value on tyrosinase (1.500 w/v%) is listed as 0.197 ± 0.004 µg melanin/µg protein/h. Besides, the “Tyrosinase enzyme activity” value on tyrosinase (3.000 w/v%) is 0.188 ± 0.004 µg melanin/µg protein/h. Besides, the tyrosinase-inhibiting effect result at tyrosinase is “significant tyrosinase-inhibiting effect”.
